Laboratory results: patent US4211772A, “Benzopyran glycoside acetals and ketals” (Laboratoires Sarget, priority 1977, dated 1980)
In brackets after ≈: the same amount, converted by molar mass. Read-outs that look alike come from different tables or passages of the source.

Legend:
[1] = target: T1, COMT (Rattus norvegicus, UniProt P22734); assay: Inhibition of COMT in vitro (enzyme from rat liver, 4-nitrocatechol substrate); assay type: biochemical; settings: in dimethylsulfoxide solution, read-out: percentages of inhibition (COMT); for inhibition at 1000 µM: 10^-3 mole/l; for inhibition at 100 µM: 10^-4 mole/l; for inhibition at 10 µM: 10^-5 mole/l
T1 construct: The enzyme is extracted from rat liver; from tissue; host or cells: rat liver
T1 sequence (P22734 1-221 isoform P22734-2): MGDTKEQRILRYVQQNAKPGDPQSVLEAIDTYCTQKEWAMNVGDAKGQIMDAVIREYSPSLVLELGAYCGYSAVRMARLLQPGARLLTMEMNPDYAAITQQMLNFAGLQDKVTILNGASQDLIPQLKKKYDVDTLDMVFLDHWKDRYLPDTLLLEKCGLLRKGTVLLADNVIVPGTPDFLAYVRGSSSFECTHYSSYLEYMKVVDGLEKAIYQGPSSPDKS
Method: Inhibition of COMT in vitro The enzyme is extracted from rat liver by the method described by Axelrod et al, J. Biol. Chem., 233, 702(1958); its activity is measured in the presence of S-adenosyl methionine and using as substrate 4-nitrocatechol by the method described by Lee et al, J. Pharm. Sci., 66(7), 986(1977). The quantity of 4-nitrocatechol consumed was determined spectrophotometrically at 520 nm in alkaline medium.

[2] = target: T2, Aldose Reductase (Bos taurus, UniProt P16116); assay: Inhibition of aldose reductase in vitro (enzyme from beef eye lenses, glyceraldehyde substrate); assay type: biochemical; settings: in DMF solution, read-out: percentages of inhibition (aldose reductase); for inhibition at 100 µM: 10^-4 mole/l; for inhibition at 10 µM: 10^-5 mole/l; for inhibition at 1 µM: 10^-6 mole/l
T2 construct: The enzyme is extracted from beef eye lenses; from tissue; host or cells: beef eye lenses
Source text: Inhibition of Aldose Reductase In Vitro
The reoxidation of NADPH coupled to the enzymatic reaction was followed spectrophotometrically at 340 nm.

[3] = Solubilities in water; assay type: physicochemical; settings: water
[4] = tested on: carragenin edema; assay: Anti-inflammatory activity: carragenin edema test; assay type: in vivo; settings: Rattus norvegicus, ip, saturated bicarbonate solution, read-out: % inhibition of carragenin edema; for inhibition in vivo at 50 mg/kg: 50 mg/kg i.p.; for inhibition in vivo at 100 mg/kg: 100 mg/kg i.p.
Method: Anti-inflammatory activity
This was determined by the carragenin edema test using male Wistar EOPS rats. Inflammation was induced by the injection of 0.1 ml of a suspension of 5% carragenin in physiological serum into the muscular bundle of the metatarsal region of the posterior paw of the animal. The test substance was administered i.p. in neutralized solution at the same time as the carragenin.
Edema was measured by plethysmometry at different times after the administration of the carragenin.
Tables IV and V show the percentages of inhibition as a function of time and of dosage for certain compounds of the present invention.
The above results were obtained for solutions of substantially alkaline
The reference experiments were performed using physiological serum brough
to a pH approximately the same as the pH of the solutions to be tested.

Row | inhibition at 1000 µM [1] | inhibition at 100 µM [1] | inhibition at 10 µM [1] | inhibition at 100 µM [2] | inhibition at 10 µM [2] | inhibition at 1 µM [2] | Compound | also measured
1 | 80 to 100% | 80 to 92% | 45% | 92% | 79% | 0% | COc1ccc(C2O[C@@H]3[C@@H](O)[C@H](C)O[C@@H](OC[C@H]4O[C@@H](Oc5c(-c6ccc(O)c(O)c6)oc6cc(O)cc(O)c6c5=O)[C@H](O)[C@@H](O)[C@@H]4O)[C@@H]3O2)cc1 (stereo partly drawn) [No. 22, 3-O-(2,3-O,O-p-methoxybenzylidene-6-α-L-rhamnosyl-β-D-glucosyl)quercetin] | –
2 | 80% | 90% | 40% | 80% | 41% | – | C[C@@H]1O[C@@H](OC[C@H]2O[C@@H](Oc3c(-c4ccc(O)c(O)c4)oc4cc(O)cc(O)c4c3=O)[C@H](O)[C@@H](O)[C@@H]2O)[C@@H]2OC(c3ccc(O)cc3)O[C@@H]2[C@H]1O (stereo partly drawn) [No. 23, 3-O-(2,3-O,O-p-hydroxybenzylidene-6-α-L-rhamnosyl-β-D-glucosyl)quercetin] | –
3 | 91% | – | 15 to 22% | 100% | 69% | 22% | COc1ccc(C2(C)O[C@@H]3[C@@H](O)[C@H](C)O[C@@H](OC[C@H]4O[C@@H](Oc5c(-c6ccc(O)c(O)c6)oc6cc(O)cc(O)c6c5=O)[C@H](O)[C@@H](O)[C@@H]4O)[C@@H]3O2)cc1 (stereo partly drawn) [No. 36, 3-O-(2,3-O,O-(α-methyl-p-methoxybenzylidene)-6-α-L-rhamnosyl-β-D-glucosyl) quercetin] | –
4 | 100% | 74% | 27% | 100% | 59% | 24% | C[C@@H]1O[C@@H](OC[C@H]2O[C@@H](Oc3c(-c4ccc(O)c(O)c4)oc4cc(O)cc(O)c4c3=O)[C@H](O)[C@@H](O)[C@@H]2O)[C@@H]2OC(C)(c3ccc(Cl)cc3)O[C@@H]2[C@H]1O (stereo partly drawn) [No. 37, 3-O-(2,3-O,O-(α-methyl-p-chlorobenzylidene)-6-α-L-rhamnosyl-β-D-glucosyl) quercetin] | –
5 | 90% | 74% | 72% | 100% | 72% | 26% | Cc1ccc(C2(C)O[C@@H]3[C@@H](O)[C@H](C)O[C@@H](OC[C@H]4O[C@@H](Oc5c(-c6ccc(O)c(O)c6)oc6cc(O)cc(O)c6c5=O)[C@H](O)[C@@H](O)[C@@H]4O)[C@@H]3O2)cc1 (stereo partly drawn) [No. 35, 3-O-(2,3-O,O-(α-methyl-p-methylbenzylidene)-6-α-L-rhamnosyl-β-D-glucosyl) quercetin] | –

Continued, compound first:

Row | Compound | inhibition at 1000 µM [1] | inhibition at 100 µM [1] | inhibition at 10 µM [1] | inhibition at 100 µM [2] | inhibition at 10 µM [2] | inhibition at 1 µM [2] | also measured
6 | C[C@@H]1O[C@@H](Oc2c(-c3cc(O)c(O)c(O)c3)oc3cc(O)cc(O)c3c2=O)[C@@H]2OC(C)(C)O[C@@H]2[C@H]1O [No. 14, 3-O-(2,3-O,O-isopropylidene-α-L-rhamnosyl)myricitin] | – | – | – | 93% | 83% | 11% | –
7 | C[C@@H]1O[C@@H](Oc2c(-c3ccc(O)c(O)c3)oc3cc(O)cc(O)c3c2=O)[C@H](O)[C@H](O)[C@H]1O [Quercitrin, reference compound] | – | – | – | – | – | – | Solubilities in water [3]: insoluble
8 | C[C@@H]1O[C@@H](OC[C@H]2O[C@@H](Oc3c(-c4ccc(O)c(O)c4)oc4cc(O)cc(O)c4c3=O)[C@H](O)[C@@H](O)[C@@H]2O)[C@@H]2OC3(CCC4CCCCC4C3)O[C@@H]2[C@H]1O (stereo partly drawn) [No. 28, 3-O-(2,3-O,O-(2-perhydronaphthylidene)-6-α-L-rhamnosyl-β-D-glucosyl) quercetin] | 76% | 52% | 0% | 67% | 62% | 0% | –
9 | C[C@@H]1O[C@@H](OC[C@H]2O[C@@H](Oc3c(-c4ccc(O)c(O)c4)oc4cc(O)cc(O)c4c3=O)[C@H](O)[C@@H](O)[C@@H]2O)[C@@H]2OC3(O[C@@H]2[C@H]1O)C1CC2CC(C1)CC3C2 (stereo partly drawn) [No. 33, 3-O-(2,3-O,O-adamantylidene-6-α-L-rhamnosyl-β-D-glucosyl)quercetin] | – | 81 to 83% | 33 to 36% | 100% | 92% | 44% | inhibition at 0.1 µM ([2]; 10^-7 mole/l): 7%
10 | C[C@@H]1O[C@@H](Oc2c(-c3cc(O)c(O)c(O)c3)oc3cc(O)cc(O)c3c2=O)[C@H](O)[C@H](O)[C@H]1O [Myricitrin, reference compound] | – | – | – | 83% | 56% | 9% | –
11 | O=c1c(O)c(-c2ccc(O)c(O)c2)oc2cc(O)cc(O)c12 [quercetin, reference compound] | – | – | – | – | – | – | inhibition in vivo at 50 mg/kg ([4]; 1/2 h): 0%; inhibition in vivo at 100 mg/kg ([4]; 1/2 h): 2%; inhibition in vivo at 50 mg/kg ([4]; 1 h, 1 h 1/2): 0%; inhibition in vivo at 50 mg/kg ([4]; 1 h, 1 h): 0%; inhibition in vivo at 100 mg/kg ([4]; 1 h, 1 h 1/2): 8%; inhibition in vivo at 100 mg/kg ([4]; 1 h, 1 h): 0%; inhibition in vivo at 50 mg/kg ([4]; 2 h, 2 h): 0%; inhibition in vivo at 100 mg/kg ([4]; 2 h, 2 h): 7%; inhibition in vivo at 50 mg/kg ([4]; 3 h, 3 h): 0%; inhibition in vivo at 100 mg/kg ([4]; 3 h, 3 h): 0%; inhibition in vivo at 50 mg/kg ([4]; 4 h, 4 h): 0%; inhibition in vivo at 100 mg/kg ([4]; 4 h, 4 h): 0%; inhibition in vivo at 50 mg/kg ([4]; 5 h, 5 h): 0%; inhibition in vivo at 100 mg/kg ([4]; 5 h, 5 h): 0%; inhibition in vivo at 50 mg/kg ([4]; 6 h, 6 h): 0%; inhibition in vivo at 100 mg/kg ([4]; 6 h, 6 h): 0%
12 | O=c1ccc2cc(O[C@@H]3O[C@@H]4COC(c5ccc(O)c(O)c5)O[C@H]4[C@H](O)[C@H]3O)c(O)cc2o1 (stereo partly drawn) [No. 24, 6-O-(4,6-O,O-(3,4-dihydroxybenzylidene)-β-D-glucosyl) esculetol] | – | – | – | 71% | 0% | – | –
13 | COc1ccc([C@@H]2CC(=O)c3c(O)cc(O[C@@H]4O[C@H](CO[C@@H]5O[C@@H](C)[C@H](O)[C@@H](O)[C@H]5O)[C@@H](O)[C@H](O)[C@H]4O)cc3O2)cc1O [Hesperidin, reference compound] | – | – | – | – | – | – | solubility ([3]; read-out: Solubilities in water): 20 µg/mL (≈ 32.8 µM)
14 | C[C@@H]1O[C@@H](O[C@H]2[C@H](Oc3cc(O)c4c(c3)O[C@H](c3ccc(O)cc3)CC4=O)O[C@H](CO)[C@@H](O)[C@@H]2O)[C@H](O)[C@H](O)[C@H]1O [Naringin, reference compound] | – | – | – | 33% | – | – | –
